What was measured:
[1] = system: phytohemagglutinin P-induced IL-2 release; assay: Phytohemagglutinin P-induced IL-2 release in human PBMCs; assay type: cell-based; details: 10 µg/mL PHA-P for 20 h
Experimental: Blood was donated by internal donors at the Center for Occupational Health at Boehringer Ingelheim in Biberach an der Riss, Germany; the donors provided signed informed consent that allows use for scientific purposes. All research was performed in accordance with the principles stated in the Declaration of Helsinki. Ethical approval was provided by the Federal State Medical Association of Baden-Württemberg, reference no. F-2016–121. For preparation of peripheral blood mononuclear cells (PBMCs), 200 mL freshly drawn human blood from healthy donors was mixed with 50 mL acid-citrate-dextrose solution (38 mmol/L citric acid, 75 mmol/L tri-sodium citrate and 121 mmol/L glucose) and 50 mL Hanks buffered saline solution (Thermo Fisher Scientific, Carlsbad, CA, United States), overlaid on Ficoll and centrifuged for 30 min at 300 x g. PBMCs were diluted in RPMI-1640 medium (Thermo Fisher Scientific) containing 6% (v/v) autologous plasma to a concentration of 5 × 10^6 cells/mL. […] Supernatants were taken and cytokines measured by enzyme-linked immunosorbent assay (ELISA; Becton Dickinson, Franklin Lakes, NJ, United States).

[2] = system: FN mRNA expression; assay: TGF-β-induced FN mRNA expression in IPF lung fibroblasts (Taqman); assay type: cell-based, human; details: IPF-LF, TGF-β 4 ng/mL, 48 h
Experimental: Fibroblasts from donors with IPF (IPF-LF) (Asterand, Detroit, MI, United States) were grown in fibroblast basal medium (CC-3131, Lonza Walkersville, Inc., Walkersville, MD, United States) supplemented with FGM-2 SingleQuot Kit Supplements and Growth Factors (CC-4126, Lonza). Cells were grown in a humidified incubator at 37°C and 5% CO2. All assays were performed at passage 7 or 8. For assay set-up, cells were seeded in fibroblast growth medium plus supplements in assay-relevant densities. For TGF-β-stimulated assays, cells were seeded at 4,500 cells per well in 96-well plates. Proliferation assays were performed in 96-well plates at an initial seeding cell density on day 0 of 2,000 cells per well. After 24-h, the cell culture medium was changed to starvation medium (fibroblast basal medium without supplements). […]
For determination of Col1A1, Col3A1, and FN mRNA expression, IPF-LF cells were stimulated with TGF-β (4 ng/mL) for 48 h. […] Quantitative real-time polymerase chain reactions were set up using the TaqMan™ Fast Advanced Master Mix (Applied Biosystems, Carlsbad, CA, United States) and species-specific gene expression assays: Col1A1 #Hs00164004_m1 FAM, Col3A1 #Hs0094309_m1 FAM, FN #Hs01549976_m1 FAM, 18S #4310893E. […] Fold-change of gene expression was calculated by the Viia7 software (regulation based upon housekeeper).

[3] = target: T1, PDE9A (Homo sapiens, UniProt O76083); assay: Recombinant PDE activity, scintillation proximity assay: PDE9A; assay type: biochemical; details: substrate cGMP
T1 construct: the full-length open reading frames of PDE1C; made in house; host or cells: SF9 insect cells (baculovirus, Bac-To-Bac, pFastbac)
T1 sequence (O76083 whole entry): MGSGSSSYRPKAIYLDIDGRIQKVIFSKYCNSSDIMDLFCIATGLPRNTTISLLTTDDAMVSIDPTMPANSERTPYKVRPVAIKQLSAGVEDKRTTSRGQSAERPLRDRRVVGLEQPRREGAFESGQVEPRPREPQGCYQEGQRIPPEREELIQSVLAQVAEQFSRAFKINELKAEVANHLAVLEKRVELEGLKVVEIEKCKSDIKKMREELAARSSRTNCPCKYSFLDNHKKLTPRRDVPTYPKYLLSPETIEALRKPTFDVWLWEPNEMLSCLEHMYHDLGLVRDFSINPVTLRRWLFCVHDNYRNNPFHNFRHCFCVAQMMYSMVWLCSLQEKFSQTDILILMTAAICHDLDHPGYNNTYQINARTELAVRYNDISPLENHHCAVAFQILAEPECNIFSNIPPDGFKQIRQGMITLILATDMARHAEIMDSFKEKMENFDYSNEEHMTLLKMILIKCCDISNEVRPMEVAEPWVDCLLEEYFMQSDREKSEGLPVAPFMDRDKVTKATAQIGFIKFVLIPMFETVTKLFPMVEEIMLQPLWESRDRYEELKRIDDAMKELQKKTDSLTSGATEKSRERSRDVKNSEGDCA
Description: For the preparation of human recombinant PDEs of interest, the Bac-To-Bac baculoviral expression system from Invitrogen (Carlsbad, CA, United States) was used according to the instruction manual. In short, the full-length open reading frames of PDE1C (National Center for Biotechnology Information Gene-Ref-Seq identifier NG_051183), PDE3A (NG_030033), PDE4A (NG_029594, AA 156–886), PDE4C (NG_029629), PDE7A (NG_029614), and PDE9A (NG_047067) were cloned into the plasmid vector pFastbac. For PDE4B and PDE4D, active site fragments were used (PDE4B NG_029038: AA 152–484, PDE4D NG_027957, AA 79–438). The plasmids were transformed into DH10Bac bacteria, SF9 insect cells were transfected with the bacmid DNA, and the resulting baculoviruses were stored and used for further rounds of infections. […] The protein content was measured and an equal volume of 87% (v/v) glycerol was added prior to freezing at −20°C. […] The reaction was stopped by addition of 50 µL of yttrium silicate scintillation proximity assay beads (17.8 mg/mL, 18 mM zinc sulfate in H2O) and the amount of produced [^3H]AMP/[^3H]GMP associated was determined using a Wallac Microbeta scintillation counter. […]

[O-][S+]1CCc2nc(N3CCC(c4ncc(Cl)cn4)CC3)nc(NC3(CO)CCC3)c21 (stereo not drawn) [BI 1015550]
IC50 [1]: 9 nM
IC50 [2]: 246 nM
IC50 [3]: > 100 µM

From publication PMC9065678, “BI 1015550 is a PDE4B Inhibitor and a Clinical Drug Candidate for the Oral Treatment of Idiopathic Pulmonary Fibrosis” (Frontiers in Pharmacology, 2022)
